According to the NIST ThermoML archive (doi:10.1021/je7003947):
“And” between values parts separate entries of the source, which are not always exact repeats. Equal entries are not always repeated. Numbers after ± are expanded uncertainties. Values belong to the compound of their own block, whether it stands above or below them.

Settings: Liquid, Closed cell (Static) method

Compound: CC(C)O [propan-2-ol]
vapor or sublimation pressure (323.19 K): 23.6 ± 0.2 kPa

Compound: CCO [ethanol]
vapor or sublimation pressure (323.14 K): 29.4 ± 1.4 kPa

Compound: CO [methanol]
vapor or sublimation pressure (323.13 K): 55.5 ± 1.4 kPa

Second part, the compound after the results:

vapor or sublimation pressure (323.12 K): 495 ± 2.2 kPa | vapor or sublimation pressure (323.13 K): 495.3 ± 2.2 kPa | vapor or sublimation pressure (323.15 K): 495.6 ± 1.8 kPa and 495.7 ± 2.2 kPa
Compound: CCCC [butane]

vapor or sublimation pressure (323.2 K): 23.8 ± 1.4 kPa
Compound: CC(C)(C)O [2-methylpropan-2-ol]

vapor or sublimation pressure (323.17 K): 10.7 ± 1.4 kPa
Compound: CCC(C)O (stereo not drawn) [butan-2-ol]
